Results reported in PubChem BioAssay (NCI).
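The compound was tested at five concentrations on cells cultured in 96-well plates, with a 48-hour exposure period. Definition used: TGI = concentration required for complete inhibition of growth.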

Key:
Assay in all cases: NCI tumour cell line growth inhibition, 48 h
[1] = system: DU-145 prostate
[2] = system: MDA-MB-231 breast
[3] = system: DLD-1 colon
[4] = system: DMS 114 small cell lung
[5] = system: HL-60(TB) leukemia
[6] = system: NCI-H226 lung
[7] = system: SN12C renal

**Q.** What does the source list for `COc1cc(-c2coc3c(OC)c(OC4OC(COC5OC(C)C(O)C(O)C5O)C(O)C(O)C4O)c(OC)c(O)c3c2=O)cc(C)c1O` (configuration not stated)?
**A.** TGI [1]: 52.7 µM; TGI [2]: > 100 µM

**Q.** For `CC(=O)OC1C(O)C(C)OC(OC(=O)C2CCC3C(C2)OC2(CC(OC(=O)/C=C/c4ccccc4)C(C)CO2)C32CO2)C1OC1OC(C)C(O)C(O)C1O` (configuration not stated), which TGI [3] is on record?
**A.** Its TGI is 5.69 µM.

**Q.** And the TGI [4]?
**A.** Its TGI is 0.0563 µM.

**Q.** And the TGI [5]?
**A.** Its TGI is 0.579 µM.

**Q.** And the TGI [6]?
**A.** Its TGI is 0.1 µM.

**Q.** What about the TGI [7] of the same molecule?
**A.** Its TGI is 0.833 µM.
